Measurements as given in ChEMBL document CHEMBL1201862, “PubChem BioAssay data set” (2004).
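Five concentrations, 48 hours, 96-well plates. GI50 marks 50% less growth.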 Calls of active or inactive are those of the source. Rule as the data show it: active = GI50 up to about 1.1 µM and inactive = higher.

Key:
Test in all cases: inhibition of tumour cell growth, NCI panel, 48 h
SK-MEL-2 = test system: SK-MEL-2
A498 = test system: A498
BT-549 = test system: BT-549
HCT-15 = test system: HCT-15
EKVX = test system: EKVX
786-0 = test system: 786-0
HOP-62 = test system: HOP-62
KM12 = test system: KM12
TK-10 = test system: TK-10
IGROV-1 = test system: IGROV-1
OVCAR-4 = test system: OVCAR-4
OVCAR-5 = test system: OVCAR-5
SF-539 = test system: SF-539
MDA-MB-231 = test system: MDA-MB-231
K562 = test system: K562
OVCAR-3 = test system: OVCAR-3
MCF7 = test system: MCF7
Hs-578T = test system: Hs-578T
MDA-N = test system: MDA-N
MOLT-4 = test system: MOLT-4
SK-MEL-5 = test system: SK-MEL-5
DU-145 = test system: DU-145
M14 = test system: M14
HT-29 = test system: HT-29
UACC-62 = test system: UACC-62
CCRF-CEM = test system: CCRF-CEM
CAKI-1 = test system: CAKI-1
U-251 = test system: U-251
PC-3 = test system: PC-3
SR = test system: SR
HOP-92 = test system: HOP-92
SNB-19 = test system: SNB-19
UO-31 = test system: UO-31
SN12C = test system: SN12C
UACC-257 = test system: UACC-257
ACHN = test system: ACHN
A549 = test system: A549
SF-268 = test system: SF-268
HCT-116 = test system: HCT-116
SK-MEL-28 = test system: SK-MEL-28
SW-620 = test system: SW-620
NCI/ADR-RES = test system: NCI/ADR-RES
MDA-MB-435 = test system: MDA-MB-435
HCC 2998 = test system: HCC 2998
HL-60 = test system: HL-60
NCI-H460 = test system: NCI-H460
COLO 205 = test system: COLO 205
SF-295 = test system: SF-295
SK-OV-3 = test system: SK-OV-3
RPMI-8226 = test system: RPMI-8226
T47D = test system: T47D
SNB-75 = test system: SNB-75
RXF 393 = test system: RXF 393
OVCAR-8 = test system: OVCAR-8
LOX IMVI = test system: LOX IMVI
NCI-H23 = test system: NCI-H23
NCI-H522 = test system: NCI-H522
NCI-H226 = test system: NCI-H226

O=C1/C(=C/c2ccc(Cl)cc2)N=C(c2ccccc2)N1c1nc2c(Cl)cc(Cl)cc2s1
GI50 (SK-MEL-2): 20.8 µM (inactive) | GI50 (A498): 18.2 µM (inactive) | GI50 (BT-549): 28.5 µM (inactive) | GI50 (HCT-15): 32.4 µM | GI50 (EKVX): 14.3 µM (inactive) | GI50 (786-0): 31.8 µM (inactive) | GI50 (HOP-62): 22 µM (inactive) | GI50 (KM12): 24.3 µM (inactive) | GI50 (TK-10): 42.1 µM (inactive) | GI50 (IGROV-1): 32.4 µM (inactive) | GI50 (OVCAR-4): 30.9 µM (inactive) | GI50 (OVCAR-5): 35.2 µM (inactive) | GI50 (SF-539): 22.3 µM (inactive) | GI50 (MDA-MB-231): 30.5 µM (inactive) | GI50 (K562): 25.1 µM (inactive) | GI50 (OVCAR-3): 19.8 µM (inactive) | GI50 (MCF7): 23.9 µM (inactive) | GI50 (Hs-578T): 31.5 µM (inactive) | GI50 (MDA-N): 17.5 µM (inactive) | GI50 (MOLT-4): 2.28 µM (inactive) | GI50 (SK-MEL-5): 18.9 µM (inactive) | GI50 (DU-145): 33.7 µM (inactive) | GI50 (M14): 34.9 µM (inactive) | GI50 (HT-29): 23.9 µM (inactive) | GI50 (UACC-62): 28.4 µM (inactive) | GI50 (CCRF-CEM): 3.45 µM (inactive) | GI50 (CAKI-1): 36.5 µM (inactive) | GI50 (U-251): 19.7 µM (inactive) | GI50 (PC-3): 18.5 µM (inactive) | GI50 (SR): 14.3 µM (inactive) | GI50 (HOP-92): 26.2 µM (inactive) | GI50 (SNB-19): 34.8 µM (inactive) | GI50 (UO-31): 25.8 µM (inactive) | GI50 (SN12C): 23.1 µM (inactive) | GI50 (UACC-257): 41.7 µM (inactive) | GI50 (ACHN): 31.7 µM (inactive) | GI50 (A549): 24.5 µM (inactive) | GI50 (SF-268): 43.9 µM (inactive) | GI50 (HCT-116): 20 µM (inactive) | GI50 (SK-MEL-28): 44.5 µM (inactive) | GI50 (SW-620): 30.7 µM (inactive) | GI50 (NCI/ADR-RES): 27.2 µM (inactive) | GI50 (MDA-MB-435): 24.7 µM (inactive) | GI50 (HCC 2998): 40.2 µM (inactive) | GI50 (HL-60): 17.3 µM (inactive) | GI50 (NCI-H460): 28.6 µM (inactive) | GI50 (COLO 205): 37.9 µM (inactive) | GI50 (SF-295): 30.6 µM (inactive) | GI50 (SK-OV-3): 28.1 µM (inactive) | GI50 (RPMI-8226): 12.5 µM (inactive) | GI50 (T47D): 25.1 µM (inactive) | GI50 (SNB-75): 35.7 µM (inactive) | GI50 (RXF 393): 29.9 µM (inactive) | GI50 (OVCAR-8): 31.9 µM (inactive) | GI50 (LOX IMVI): 22.4 µM (inactive)

CCOC(=O)[C@@H]1ON2OC(OC3CCCC3(c3ccccc3)c3ccccc3)C(OC(C)=O)[C@H]3OC(=O)[C@@H]1C32 (stereo partly specified)
GI50 (SK-MEL-2): 68.7 µM (inactive) | GI50 (A498): > 100 µM (inactive) | GI50 (BT-549): > 100 µM (inactive) | GI50 (HCT-15): > 100 µM | GI50 (EKVX): 89.7 µM (inactive) | GI50 (786-0): 92.3 µM (inactive) | GI50 (HOP-62): > 100 µM (inactive) | GI50 (KM12): > 100 µM (inactive) | GI50 (TK-10): > 100 µM (inactive) | GI50 (IGROV-1): > 100 µM (inactive) | GI50 (SF-539): 56.6 µM (inactive) | GI50 (MDA-MB-231): > 100 µM (inactive) | GI50 (K562): 97.9 µM (inactive) | GI50 (NCI-H23): > 100 µM (inactive) | GI50 (OVCAR-3): 30.5 µM (inactive) | GI50 (MCF7): 21.3 µM (inactive) | GI50 (Hs-578T): > 100 µM (inactive) | GI50 (MDA-N): > 100 µM (inactive) | GI50 (MOLT-4): 43.3 µM (inactive) | GI50 (SK-MEL-5): 42.9 µM (inactive) | GI50 (DU-145): > 100 µM (inactive) | GI50 (M14): 95.7 µM (inactive) | GI50 (HT-29): 62.1 µM (inactive) | GI50 (UACC-62): > 100 µM (inactive) | GI50 (CCRF-CEM): 29.2 µM (inactive) | GI50 (CAKI-1): > 100 µM (inactive) | GI50 (U-251): 42.8 µM (inactive) | GI50 (PC-3): > 100 µM (inactive) | GI50 (SR): > 100 µM (inactive) | GI50 (HOP-92): > 100 µM (inactive) | GI50 (SNB-19): > 100 µM (inactive) | GI50 (UO-31): 36.4 µM (inactive) | GI50 (SN12C): > 100 µM (inactive) | GI50 (NCI-H522): 21.2 µM (inactive) | GI50 (UACC-257): 52.5 µM (inactive) | GI50 (ACHN): 29.9 µM (inactive) | GI50 (A549): 47.2 µM (inactive) | GI50 (NCI-H226): > 100 µM (inactive) | GI50 (SF-268): > 100 µM (inactive) | GI50 (HCT-116): 29.6 µM (inactive) | GI50 (SK-MEL-28): > 100 µM (inactive) | GI50 (SW-620): > 100 µM (inactive) | GI50 (NCI/ADR-RES): > 100 µM (inactive) | GI50 (MDA-MB-435): 51.1 µM (inactive) | GI50 (HCC 2998): 35.1 µM (inactive) | GI50 (HL-60): 31.3 µM (inactive) | GI50 (NCI-H460): > 100 µM (inactive) | GI50 (COLO 205): > 100 µM (inactive) | GI50 (SF-295): 31.6 µM (inactive) | GI50 (SK-OV-3): > 100 µM (inactive) | GI50 (RPMI-8226): > 100 µM (inactive) | GI50 (T47D): 46.6 µM (inactive) | GI50 (SNB-75): > 100 µM (inactive) | GI50 (RXF 393): 27.4 µM (inactive) | GI50 (OVCAR-8): > 100 µM (inactive) | GI50 (LOX IMVI): 22.1 µM (inactive)
